The target in the experiment is SARS-CoV 3CL protease (Severe acute respiratory syndrome coronavirus, UniProt P0C6X7). The experiment can be described thus: biochemical. The format is biochemical.

3 molecules from paper PMC7092914 (Biochemical and Biophysical Research Communications, 2005) can be followed below.

SMILES strings stand for the structures. Entries after “also recorded” stand apart in the source; their conditions may differ.

As usually defined, the IC50 is the point on the concentration scale where inhibition reaches its midpoint. A higher IC50 goes with lower potency.

Regarding `Oc1c(Cl)cc(Cl)c(Cl)c1Cc1c(O)c(Cl)cc(Cl)c1Cl` [hexachlorophene], the IC50 turned out to be 5 µM, the “apparent Vmax in presence of inhibitor” value was 6.98 ± 0.16 µmol/min/mg, the “dependence of inhibitory effect on preincubation time” value is given as “dependent on preincubation time; also recorded: slowly binding inhibitor” and the “inhibition mechanism / binding mode” value is “classic competitive inhibitor”.

`Cc1c(O)cccc1C(=O)N[C@@H](CSc1ccccc1)[C@H](O)CN1C[C@H]2CCCC[C@H]2C[C@H]1C(=O)NC(C)(C)C` [nelfinavir]: the IC50 is 46 µM and the “potency relative to hexachlorophene (times less potent)” value was “about 10 times”.

In the case of `Oc1cc(Cl)ccc1Oc1ccc(Cl)cc1Cl` [triclosan], the “potency relative to hexachlorophene (times less potent)” value is recorded as “about 10 times”.
